Earlier results as cited in US11859018B2, “Peptoid-based chelating ligands for selective metal chelation” (TRIAD National Security, LLC., priority 2018, dated 2024).

- stability constant for the Fe(III) complex, Log(Kβ): 49
SMILES: O=C(N[C@H]1COC(=O)[C@@H](NC(=O)c2cccc(O)c2O)COC(=O)[C@@H](NC(=O)c2cccc(O)c2O)COC1=O)c1cccc(O)c1O [enterobactin]
